For one data set, the system named is P. falciparum NF54. In kind it is cell-based, Plasmodium falciparum. The conditions noted are these: NF54, 72 h. How it is done:
(§1) P. falciparum was cultured in human O + erythrocytes in Roswell Park Memorial Institute medium 1640, supplemented with 25-mM HEPES buffer, 10-mM glucose, 2-mM glutamine, and O + human plasma. Parasites were cultured under low-oxygen atmosphere (5% O2, 5% CO2, and 90% N2) ([34]) and maintained in fresh human erythrocytes suspended at 4% hematocrit in complete medium at 37°C. Stock cultures were subpassaged every 3–4 days by transfer of infected red cells to a flask containing complete medium and uninfected erythrocytes.
(§2) In vitro sensitivity to peptides was tested using a previously described SYBR green I fluorescence-based method ([39], [40]). Assays were set up in 96-well plates with twofold peptide dilutions in 150-μL total volume and 1.5% (vol/vol) final red blood cell concentration. Stock solutions of each peptide were prepared in DMSO. Experiments were started at an initial parasitemia of 0.5% (80% rings) synchronous parasite-infected red blood cells. Plates were incubated for 72 h at 37°C in an atmosphere of 5% CO2, 5% O2, and 90% N2. The SYBR green I dye-lysis mixture (l:100) was added to the parasites in black plates that were incubated at room temperature for an hour in the dark. The plates were then read using a fluorescence plate reader at excitation and emission wavelengths of 480 and 535 nm, respectively. Experiments were performed in duplicate wells. Three independent assays were performed for each peptide.

The subject of data set [1] is P. falciparum TM90C2B (C2B). It counts as cell-based, Plasmodium falciparum. The settings on record: TM90C2B (C2B, 72 h). How it is done:
as §1, §2

Data set [2] can be described thus: Cytotoxicity, resazurin reduction assay. It counts as cell-based. The conditions noted are these: Macaca mulatta, LLC-MK2 cells (Macaca mulatta kidney cells), 100.0–0.195 µM, three independent assays in duplicate wells, read-out: IC50 (CC50) Llc-mk2, with 95% confidence interval. The protocol: (§3) RAW 264.7 murine macrophages and Macaca mulatta kidney cells (LLC-MK2) were cultured in 75-cm^2 flasks with 10-mL Dulbecco’s Modified Eagle’s Medium (DMEM) supplemented with 10% fetal bovine serum and 1% penicillin/streptomycin (DMEM-10) medium. Culture conditions were 37°C, 5% CO2, and 95% relative humidity. RAW 264.7 cells were rinsed with PBS, detached with a cell scraper, and passaged every 96 h. LL-MCK2 were subcultured weekly, at 1:4 ratio, via trypsinization.
(§4) The toxicity of the studied AMPs over LLC-MK2 and RAW 264 cells was determined via a resazurin (RZN) reduction assay ([42]). Briefly, 2 × 10^4 cells/well were seeded in DMEM-10 in 96-well plates. Twenty-four hours later, culture medium was removed, and 10 twofold serial dilutions (100.0–0.195 µM) of each AMP in 200-µL volume were placed in duplicate wells. The plate was placed on the incubator in the dark at 37°C and 5% CO2. Ten microliters of 3-mM RZN sodium salt in PBS per well was added, and the plate was incubated for 24 h. Finally, the fluorescence was measured (530- to 560-nm excitation and 590-nm emission wavelengths). Three independent assays were performed for each peptide.
For orientation: Alamar Blue is a resazurin reagent that responds to reducing activity.

For data set [3], the system named is T. cruzi trypomastigotes (Tulahuen, Tula β-gal). It counts as cell-based, Trypanosoma cruzi. The conditions noted are these: trypomastigotes (Tulahuen, Tula β-gal, 4 h). How it is done: T. cruzi trypomastigote culture was performed as reported previously ([35], [36]). LLC-MK2 cell monolayers were infected with 5 × 10^5 trypomastigotes in 10-mL DMEM supplemented with 2% FBS and 1% penicillin/streptomycin (DMEM-2), for 48 h at 37°C, 5% CO2 and 98% relative humidity. Parasites were subsequently removed by rinsing with PBS, and 10-mL fresh DMEM-2 was added. Five days post-infection, trypomastigotes were harvested from the culture for the trypanocidal activity assays.
Wells containing parasites not exposed to peptides and treated with 0.1% Triton served as 100% lysis reference. Plates were incubated in the dark at 37°C and 5% CO2 for 4 h, and absorbance was read at 590 nm. Experiments were performed in duplicate wells. Three independent assays were performed for each peptide.

Data set [4] deals with Leishmania mexicana strain M379 promastigotes. It counts as cell-based. The conditions noted are these: for SI L. mexicana: RAW 264.7 CC50/parasite IC50; for IC50: promastigotes 1 × 10^6/well, SDM without FBS, 48 h at 25°C, MTT, three independent assays in triplicate, read-out: IC50 L. mexicana, with 95% confidence interval. How it is done: L. mexicana promastigote stock cultures were maintained in USHMARU biphasic medium [blood agar slant overlayed with 3 mL of Schneider’s Drosophila medium (SDM), containing 10% fetal bovine serum (FBS)] at 25°C. Promastigotes were collected by centrifugation and washed with PBS, and culture medium was replaced every 2 days. Every 4 days, the parasites were transferred to a new tube and to a 25-cm^2 tissue culture flask containing 10 mL of monophasic medium (SDM + 10% FBS + 1% penicillin/streptomycin). If present, rosettes were disrupted by passing the culture through 10-mL syringes with 27G needles.
Parasite viability was measured colorimetrically via 3-(4,5-dimethylthiazol-2-yl)-2,5-diphenyltetrazole bromide tetrazolium salt (MTT) reduction. Promastigotes were placed in 96-well conical-bottom plates in SDM + 1% penicillin/streptomycin without FBS, at a density of 1 × 10^6/well. Untreated parasites (growth control), 1-µM amphotericin B diluted in DMSO (positive control), 0.25% DMSO (negative control), and each of the peptides at a final concentration of 0.1, 0.5, 1.0, 5.0, and 10.0 µM were included in triplicate wells. Plates were incubated at 25°C for 48 h. Subsequently, 20-µL 10% MTT was added per well. Plates were incubated for 2 h in the dark at the same temperature and centrifuged at 4,000 rpm for 10 min, and the supernatant was removed. Formazan crystals were diluted with 50-µL DMSO, and absorbances (A570–630) were read ([37], [38]). Three independent assays were performed for each peptide.

The test system of data set [5] is intracellular T. cruzi amastigotes (Tula β-gal) in LLC-MK2 cells. The conditions noted are these: read-out: IC50 T. cruzi amastigotes, with 95% confidence interval, 96 h, CPRG read-out, three independent assays. The protocol:
Leishmania mexicana strain M379, P. falciparum reference clones NF54 (chloroquine-sensitive, isolated from a patient at an airport in the Netherlands) and TM90C2B (C2B) (chloroquine, mefloquine, and atovaquone resistant, from Thailand) and T. cruzi, β-galactosidase-expressing, Tulahuen strain parasites (C4 clone; +lacZ, henceforth abbreviated as Tula β-gal) ([33]) were employed in the study.
LLC-MK2 cells, 2 × 10^4/well, were seeded and allowed to attach overnight to 96-well plates. he medium was removed and cells were infected with 1 × 10^5 parasites in DMEM-2 for 24 h. Cell monolayers were washed four times with PBS, and serial dilutions of AMPs (100.0- to 0.195-µM range) in DMEM-2 without phenol red were added to duplicate wells. Wells containing infected cells not exposed to peptides served as parasite growth reference. The infection was allowed to proceed for 96 h. Subsequently, lysis solution was added to each well to a final concentration of 100-µM CPRG and 0.1% Triton and incubated for 2 h. Absorbance was measured at 590 nm ([41]). Three independent assays were performed for each peptide.
Half-maximal inhibitory concentration (IC50) and half-maximal cytotoxic concentration (CC50) with 95% confidence intervals in GraphPad Prism software (v.9.2.0., non-linear regression with curve fitting [model: log (inhibitor) vs response (three parameters)]. The selectivity index (SI) was determined by dividing the CC50 value of RAW 264.7 cells by the IC50 of the parasites.

The nature of data set [6]: Cytotoxicity, resazurin reduction assay. It counts as cell-based, murine. The settings on record: mouse. How it is done:
as §3, §4

In data set [7] the test system is Escherichia coli ATCC 25922. In kind it is cell-based. The settings on record: ATCC 25922, 16 h. The protocol: (§5) The minimum inhibitory concentration (MIC) of CZS-4 over Escherichia coli American Type Culture Collection (ATCC) 25922, Staphylococcus aureus ATCC 29213, and Candida albicans ATCC 10231 was determined, as previously described ([28], [30], [31]). In brief, overnight cultures of each microorganism were subcultured in Muller-Hinton Broth (MHB) until reaching 1 × 10^6 CFU/mL for bacteria and 1 × 10^5 CFU/mL for yeast. Peptide serial dilutions in dimethylsulfoxide (DMSO), ranging from 0.4 to 209.4 µM were prepared, and 2 µL of each peptide dilution was added to 198-µL diluted bacterial or yeast culture in a 96-well sterile plate (with five replicates). Sterile MHB and microbial culture with DMSO were negative controls. Plates were incubated for 16 h at 37°C. Microorganism growth was measured at 600 nm.

Data set [8] deals with Candida albicans ATCC 10231. In kind it is cell-based. The settings on record: ATCC 10231, 16 h. How it is done:
as §5

Data set [9] deals with Staphylococcus aureus ATCC 29213. It counts as cell-based. The conditions noted are these: ATCC 29213, 16 h. The protocol:
as §5

Another data set has as its system red blood cell. In kind it is cell-based. How it is done: Hemolytic activity was determined using 200 µL of 4% red blood cell solution incubated with 200 µL of serial dilutions peptide (0.4–209.4 µM) in phosphate-buffered saline (PBS) 1× (five replicates). Negative controls contained PBS instead of peptide; positive controls contained 2% vol/vol Triton X-100 to yield complete hemolysis. Assays were incubated at 37°C for 2 h, and samples were centrifuged at […] for 5 min. Two-hundred microliters of supernatant was transferred to a 96-well plate and absorbance was measured at 550 nm.

The mark [10] stands for this setting: RAW 264.7 macrophages, resazurin reduction, 24 h, 100.0–0.195 µM, three independent assays in duplicate wells, read-out: IC50 (CC50) Raw 264.7, with 95% confidence interval.

Read-outs that look alike come from different tables or passages of the source. No end group written: not given here.

Results on five substances are retold here after article PMC11302733, “Bioactivity of synthetic peptides from Ecuadorian frog skin secretions against Leishmania mexicana, Plasmodium falciparum, and Trypanosoma cruzi” (Microbiology Spectrum, 2024).

With GFLDIVKGVGKVALGAVSKLF-NH2 [CZS-1], the IC50 in the data set on P. falciparum NF54 is 31.2 µM; in data set [1] it was 16.8 µM; in data set [3], 2.87 µM; in [4] it was 0.54 µM; in [5], 16.7 µM. Moreover, the CC50 at 24 h in [2] came to 3.17 µM; in data set [6] (setting [10]) it was 2.38 µM. Moreover, in [4], the “SI L. mexicana” value is given as 4.41.

GFLDVLKGVGKAALGAVTHLINQ-NH2 [CZS-16]: the IC50 in the data set on P. falciparum NF54 was found to be 36.8 µM; in [1], 34.4 µM; in [3], 18.7 µM; in data set [5] it was 38.3 µM. For the same substance, the figures for the CC50 at 24 h in data set [2] and in [6] (setting [10]) were 5.59 µM and 4.4 µM, respectively.

As for “ASWKVFLKNIGKAAGKAVLNSVTDMVNQ-NH2 [DRS-SP2]”, the figures for the IC50 (with P. falciparum NF54; in [1]; in [4]) were 12.1 µM, 15.3 µM and 0.61 µM, respectively. Further, in data set [4], the “SI L. mexicana” value came to 5.15. Further, it took 3.14 µM to reach half-maximal cytotoxicity in data set [6] (CC50 at 24 h).

For GFLDVIKHVGKAALSVVSHLINE-NH2 [CZS-4], the IC50 in the data set with P. falciparum NF54 was found to be 13.9 µM; in [1], 4.87 µM; in data set [3], 1.55 µM; in [4], 0.09 µM; in [5], 30.7 µM. Besides, the MIC in data set [7] was 13.09 µM; in [8] it was 52.36 µM; in data set [9], 26.18 µM. Also, the CC50 at 24 h in [2] was 70.7 µM; in data set [6] (setting [10]) it was 48 µM. The Hemolysis was 13% in the data set on red blood cell (128 µM) and “less than 9.1%” in the data set on red blood cell (2 h). The “Hemolysis (%)” value in the data set with red blood cell (2 h, 13.09 µM) is 1.2%; with red blood cell (2 h, 26.18 µM), 9.1%; in the data set on red blood cell (2 h, 104.73 µM) it was 28.5%; with red blood cell (2 h, 209.46 µM), 36.3%. In data set [4], the “SI L. mexicana” value turned out to be 532.89.

On to GFLDTLKNIGKTVGRIALNVLT-NH2 [PTS-1], for which the IC50 is 52.6 µM in the data set with P. falciparum NF54; 24.9 µM in data set [1]; 1.42 µM in data set [3]; 0.1 µM in data set [4]; 30.2 µM in data set [5]. In addition, the CC50 at 24 h in data set [2] was 80.1 µM; in data set [6] (setting [10]), 2.52 µM. The “SI L. mexicana” value in data set [4] turned out to be 25.20.

Broadly, the IC50 is the concentration that inhibits the measured activity by half. In general, CC50 refers to the concentration giving 50% cytotoxicity. The MIC is the lowest concentration found to suppress growth. Read a low MIC as a more susceptible organism.
